In test [1] the target is c-kit kinase (Homo sapiens (Human), UniProt P10721). The test is described as follows: c-Kit biochemical assay (AlphaScreen). The conditions noted are these: c-kit biochemical inhibitory activity. The method in brief:
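AlphaScreen of biotin-(E4Y)3 (100 nM) phosphorylation by c-kit (0.1 ng) in HEPES pH 7.2, Mg/Mn, 10 μM ATP, 5% DMSO, 1 h at room temperature; variant uses 100 μM ATP, 30 nM biotin-(E4Y)10, 1 ng enzyme. PY20 acceptor/streptavidin donor signal versus 8-point concentration gives IC50.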
Background: Bead proximity is the source of the signal in Alpha formats.

In test [2] the test system is BaF3-FL KIT D816V or BaF3-FL KIT V560G/D816V cell line. The experiment in a line: Cell-based assays of c-Kit mutant kinase activity (cell growth, ATPlite). The conditions noted are these: at least one of the c-kit cell assays of Example 26. In outline:
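BaF3 cells dependent on full-length human KIT (D816V or V560G/D816V) seeded at 1×10^4 cells/well in RPMI with 10% FBS. Eight-point 1:3 dilutions from 10 μM top final (0.2% DMSO), 3 days at 37° C., 5% CO2. ATPlite luminescence gave IC50.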
(In general: ATP-based viability assays read luminescence as a measure of living cells.)

Chain of c-kit kinase (P10721 26-976): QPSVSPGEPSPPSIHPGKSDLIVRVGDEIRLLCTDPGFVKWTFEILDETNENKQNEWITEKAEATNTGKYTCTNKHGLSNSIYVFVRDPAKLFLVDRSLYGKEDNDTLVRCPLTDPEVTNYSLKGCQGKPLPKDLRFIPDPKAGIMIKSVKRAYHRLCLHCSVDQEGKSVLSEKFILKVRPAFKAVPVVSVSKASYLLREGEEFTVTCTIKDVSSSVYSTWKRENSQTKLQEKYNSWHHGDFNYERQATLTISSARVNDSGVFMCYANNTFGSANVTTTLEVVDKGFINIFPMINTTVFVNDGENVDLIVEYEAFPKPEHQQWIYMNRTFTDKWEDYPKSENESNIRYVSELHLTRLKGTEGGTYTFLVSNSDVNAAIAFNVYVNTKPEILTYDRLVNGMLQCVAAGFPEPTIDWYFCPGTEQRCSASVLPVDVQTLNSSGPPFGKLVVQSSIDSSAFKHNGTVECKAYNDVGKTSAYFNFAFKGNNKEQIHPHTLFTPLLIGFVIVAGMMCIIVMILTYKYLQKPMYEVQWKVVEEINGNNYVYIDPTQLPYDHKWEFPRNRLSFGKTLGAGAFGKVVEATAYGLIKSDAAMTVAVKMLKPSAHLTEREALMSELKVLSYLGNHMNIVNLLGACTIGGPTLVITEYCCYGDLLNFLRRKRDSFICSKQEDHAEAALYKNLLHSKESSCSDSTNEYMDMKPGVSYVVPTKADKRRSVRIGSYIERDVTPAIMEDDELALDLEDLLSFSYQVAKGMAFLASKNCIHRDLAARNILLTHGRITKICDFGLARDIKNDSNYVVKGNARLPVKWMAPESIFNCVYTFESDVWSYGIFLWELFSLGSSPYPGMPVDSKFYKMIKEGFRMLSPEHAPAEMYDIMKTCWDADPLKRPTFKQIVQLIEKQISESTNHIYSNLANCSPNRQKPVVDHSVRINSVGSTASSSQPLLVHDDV

For orientation: IC50 means the midpoint of a concentration-inhibition curve. Read a low IC50 as inhibition by little substance. Turning to `Cc1cc(Cl)ccc1-c1cc2cc(NC(=O)c3[nH]nc(C)c3C)cnc2[nH]1` [P-2277, N-[2-(4-chloro-2-methyl-phenyl)-1H-pyrrolo[2,3-b]pyridin-5-yl]-3,4-dimethyl-1H-pyrazole-5-carboxamide], the IC50 in test [1] was 10 to 200 µM; in test [2], under 10 µM.
The corresponding values for `Cc1n[nH]c(C(=O)Nc2cnc3[nH]c(-c4ccncc4Cl)cc3c2)c1C` [P-2278, N-[2-(3-chloro-4-pyridyl)-H-pyrrolo[2,3-b]pyridin-5-yl]-3,4-dimethyl-1H-pyrazole-5-carboxamide] are 10 to 200 µM and under 10 µM.
For `Cc1n[nH]c(C(=O)Nc2cnc3[nH]c(-c4ccc(F)nc4F)cc3c2)c1C` [P-2280, N-[2-(2,6-difluoro-3-pyridyl)-1H-pyrrolo[2,3-b]pyridin-5-yl]-3,4-dimethyl-1H-pyrazole-5-carboxamide], in that order: 10 to 200 µM and under 10 µM.
Turning to `Cc1n[nH]c(C(=O)Nc2cnc3[nH]c(-c4cccc5c4OC(F)(F)O5)cc3c2)c1C` [P-2281, N-[2-(2,2-difluoro-1,3-benzodioxol-4-yl)-1H-pyrrolo[2,3-b]pyridin-5-yl]-3,4-dimethyl-1H-pyrazole-5-carboxamide], the IC50 in test [1] was 10 to 200 µM; in test [2], under 10 µM.
As for `Cc1cc(-c2cc3cc(NC(=O)c4[nH]nc(C)c4C)cnc3[nH]2)cnc1C` [P-2282, N-[2-(5,6-dimethyl-3-pyridyl)-1H-pyrrolo[2,3-b]pyridin-5-yl]-3,4-dimethyl-1H-pyrazole-5-carboxamide], the results for the IC50 in test [1] and in test [2] were 1 to 10 µM and under 10 µM, respectively.
On to `COc1ccc(-c2cc3cc(NC(=O)c4[nH]nc(C)c4C)cnc3[nH]2)c(C)c1C` [P-2284, N-[2-(4-methoxy-2,3-dimethyl-phenyl)-1H-pyrrolo[2,3-b]pyridin-5-yl]-3,4-dimethyl-1H-pyrazole-5-carboxamide], for which the values for the IC50 in test [1] and in test [2] were 1 to 10 µM and under 10 µM, respectively.
The corresponding values for `Cc1nn(C2CN(C(=O)OC(C)(C)C)C2)cc1-c1cc2cc(NC(=O)c3[nH]nc(C)c3C)cnc2[nH]1` [P-2285, tert-butyl 3-[4-[5-[(3,4-dimethyl-1H-pyrazole-5-carbonyl)amino]-1H-pyrrolo[2,3-b]pyridin-2-yl]-3-methyl-pyrazol-1-yl]azetidine-1-carboxylate] are 0.0001 to 1 µM and under 10 µM.
The corresponding values for `Cc1nn(C2CNC2)cc1-c1cc2cc(NC(=O)c3[nH]nc(C)c3C)cnc2[nH]1` [P-2286, N-[2-[1-(azetidin-3-yl)-3-methyl-pyrazol-4-yl]-1H-pyrrolo[2,3-b]pyridin-5-yl]-3,4-dimethyl-1H-pyrazole-5-carboxamide] are 0.0001 to 1 µM and under 10 µM.
The corresponding values for `O=C(Nc1cnc2[nH]c(-c3ccccc3)cc2c1)c1cccc2n[nH]cc12` [P-2289, N-(2-phenyl-1H-pyrrolo[2,3-b]pyridin-5-yl)-2H-indazole-4-carboxamide] are 0.0001 to 1 µM and under 10 µM.
`COC(=O)c1cccc(C(=O)Nc2cnc3[nH]c(-c4ccccc4)cc3c2)c1` [P-2290, methyl 3-[(2-phenyl-1H-pyrrolo[2,3-b]pyridin-5-yl)carbamoyl]benzoate]: the IC50 is 10 to 200 µM in test [1] and under 10 µM in test [2].
The corresponding values for `O=C(O)c1cccc(C(=O)Nc2cnc3[nH]c(-c4ccccc4)cc3c2)c1` [P-2291, 3-[(2-phenyl-1H-pyrrolo[2,3-b]pyridin-5-yl)carbamoyl]benzoic acid] are 10 to 200 µM and under 10 µM.
The corresponding values for `Cc1n[nH]c(C(=O)Nc2cnc3[nH]c(-c4ccc(C(=O)O)c(F)c4)cc3c2)c1C` [P-2292, 4-[5-[(3,4-dimethyl-1H-pyrazole-5-carbonyl)amino]-1H-pyrrolo[2,3-b]pyridin-2-yl]-2-fluoro-benzoic acid] are 0.0001 to 1 µM and under 10 µM.
The corresponding values for `Cc1n[nH]c(C(=O)Nc2cnc3[nH]c(-c4cccc(CC(=O)O)c4)cc3c2)c1C` [P-2293, 2-[3-[5-[(3,4-dimethyl-1H-pyrazole-5-carbonyl)amino]-1H-pyrrolo[2,3-b]pyridin-2-yl]phenyl]acetic acid] are 0.0001 to 1 µM and under 10 µM.
Turning to `Cc1n[nH]c(C(=O)Nc2cnc3[nH]c(-c4ccc(C5(C(=O)O)CC5)cc4)cc3c2)c1C` [P-2294, 1-[4-[5-[(3,4-dimethyl-1H-pyrazole-5-carbonyl)amino]-1H-pyrrolo[2,3-b]pyridin-2-yl]phenyl]cyclopropanecarboxylic acid], the IC50 was 0.0001 to 1 µM in test [1] and under 10 µM in test [2].
The corresponding values for `Cc1n[nH]c(C(=O)Nc2cnc3[nH]c(-c4ccc(CC(=O)O)cc4)cc3c2)c1C` [P-2295, 2-[4-[5-[(3,4-dimethyl-1H-pyrazole-5-carbonyl)amino]-1H-pyrrolo[2,3-b]pyridin-2-yl]phenyl]acetic acid] are 0.0001 to 1 µM and under 10 µM.
For `Cc1cc(-c2cc3cc(NC(=O)c4[nH]nc(C)c4C)cnc3[nH]2)ccc1C(=O)O` [P-2296, 4-[5-[(3,4-dimethyl-1H-pyrazole-5-carbonyl)amino]-1H-pyrrolo[2,3-b]pyridin-2-yl]-2-methyl-benzoic acid], in that order: 0.0001 to 1 µM and under 10 µM.
For `Cc1n[nH]c(C(=O)Nc2cnc3[nH]c(-c4cccc(C(=O)O)c4C)cc3c2)c1C` [P-2297, 3-[5-[(3,4-dimethyl-1H-pyrazole-5-carbonyl)amino]-1H-pyrrolo[2,3-b]pyridin-2-yl]-2-methyl-benzoic acid], in that order: 0.0001 to 1 µM and under 10 µM.

The values are drawn from US10301280B2 (Plexxikon Inc., priority 2012, dated 2019).
